The source of these data is patent US7396848B1, “Neurotrophin production/secretion promoting agent” (Takeda Pharmaceutical Company Limited, priority 2000, dated 2008).

One data set relates to BDNF. Briefly: BDNF production/secretion promoting activity in cultured Schwann cells (enzyme immunoassay of culture fluid). The data set is classed as cell-based, SD rats. To be noted: 24 hours, concentrations of 10^−4 M to 10^−8 M, result in words.
As for `COc1ccccc1OCCCc1oc(-n2ccnc2C)nc1-c1ccc(Cl)cc1` [Compound (1), 4-(4-chlorophenyl)-5-[3-(2-methoxyphenoxy)propyl]-2-(2-methyl-1-imidazolyl)oxazole], the “BDNF production/secretion promoting activity” value is given as “excellent”.

For the next data set, the system named is NGF. Briefly: NGF production/secretion promoting activity in cultured Schwann cells (enzyme immunoassay of culture fluid). Format: cell-based, SD rats. To be noted: 24 hours, concentrations of 10^−4 M to 10^−8 M, result in words. On the procedure:
Schwann cells were prepared by subjecting the dorsal spinal root ganglion collected from 10 newborn SD rats to enzyme treatment using 0.25% trypsin containing 0.01% deoxyribonuclease (DNase, produced by Sigma), followed by cloning from the cell group obtained. […]
The culture fluid obtained in each run of Reference Example 1A was recovered and assayed for the neurotrophin content therein. […] After washing, 30 μl of 4-methylumbelliferyl-β-D-galactoside (produced by Sigma) (10 μg/μl) was added to the substrate, the reaction was allowed to proceed at room temperature for 4 hours and then terminated by addition of 130 μl of 0.1 M glycine-sodium hydroxide buffer (pH 10.3), and the fluorescent intensity of the 4-methylumbelliferone produced was determined (Ex: 360 nm; Em: 450 nm). The amount of NGF was calculated based on a standard curve and expressed in terms of relative multiplicity in relation to the amount of NGF (control) produced and secreted by cells treated in the same manner without adding the test compound. […]
As to `COc1ccccc1OCCCc1oc(-n2ccnc2C)nc1-c1ccc(Cl)cc1` [Compound (1), 4-(4-chlorophenyl)-5-[3-(2-methoxyphenoxy)propyl]-2-(2-methyl-1-imidazolyl)oxazole], the “NGF production/secretion promoting activity” value is “excellent”.

Tested on in the next data set: not given
Assay: not given
Conditions: not given
As usually defined, the melting point is the temperature, or range, at which the solid turns liquid. As to `Cc1nccn1-c1nc(-c2ccc(C(F)(F)F)cc2)c(CCCO)o1` [Example 118, 2-(2-methyl-1-imidazolyl)-4-(4-trifluoromethylphenyl)-5-oxazolepropanol], the melting point fell in the range of 127 to 129 °C.

Regarding `CCCc1nccn1-c1nc(-c2ccc(Cl)cc2)c(CCCOc2ccccc2OC)o1` [Example 83, 4-(4-chlorophenyl)-5-[3-(2-methoxyphenoxy)propyl]-2-(2-propyl-1-imidazolyl)oxazole], the melting point is 89 to 90 °C. Same read-out and setting: the value for `CCCCCCCCCCCc1nccn1-c1nc(-c2ccc(Cl)cc2)c(CCCOc2ccccc2OC)o1` [Example 84, 4-(4-chlorophenyl)-5-[3-(2-methoxyphenoxy)propyl]-2-(2-undecyl-1-imidazolyl)oxazole] was 53 to 54 °C; that for `Cc1ccccc1OCCCc1oc(-n2ccnc2)nc1-c1ccc(Cl)cc1` [Example 55, 4-(4-chlorophenyl)-2-(1-imidazolyl)-5-[3-(2-methylphenoxy)propyl]oxazole] was 113 to 114 °C. Still for that read-out and setting: the value for `CCOC(=O)CCCc1sc(N)nc1-c1ccc(Cl)cc1` [Example 22, ethyl 2-amino-4-(4-chlorophenyl)-5-thiazolebutanoate] was 114 to 115 °C; that for `Cc1nccn1-c1nc(-c2ccc(Cl)c(Cl)c2)c(CCCO)o1` [Example 119, 4-(3,4-dichlorophenyl)-2-(2-methyl-1-imidazolyl)-5-oxazolepropanol] was 140 to 141 °C; that for `COc1ccccc1OCCCc1oc(-n2cnc(-c3ccccc3)c2-c2ccccc2)nc1-c1ccc(Cl)cc1` [Example 42, 4-(4-chlorophenyl)-2-(4,5-diphenyl-1-imidazolyl)-5-[3-(2-methoxyphenoxy)propyl]oxazole] was 118 to 119 °C.

In the case of `Cc1nccn1-c1nc(-c2ccc(Cl)cc2)c(CCCOc2ccccc2CCCO)o1` [Example 93, 4-(4-chlorophenyl)-5-[3-(2-(3-hydroxypropyl)phenoxy)propyl]-2-(2-methyl-1-imidazolyl)oxazole], the melting point is 119 to 120 °C. On to `Cc1nccn1-c1nc(-c2ccc(Cl)cc2)c(CCCOc2ccccc2CCC(=O)O)o1` [Example 94, 3-[2-[3-[4-(4-chlorophenyl)-2-(2-methyl-1-imidazolyl)-5-oxazolyl]propoxy]phenyl]propionic acid], for which the melting point was in the range of 184 to 185 °C. The same measure, in the same setting: the value for `Cc1cc(O)ccc1OCCCc1oc(-n2ccnc2C)nc1-c1ccc(Cl)cc1` [Example 113, 4-[3-[4-(4-chlorophenyl)-2-(2-methyl-1-imidazolyl)-5-oxazolyl]propyloxy]-3-methylphenol] was 175 to 176 °C; that for `COC(=O)CCc1oc(-n2ccnc2C)nc1-c1ccc(C(F)(F)F)cc1` [Example 116, methyl 2-(2-methyl-1-imidazolyl)-4-(4-trifluoromethylphenyl)-5-oxazolepropionate] was 94 to 95 °C; that for `CCOC(=O)C1CCN(c2nc(-c3ccc(Cl)cc3)c(CCCOc3ccccc3OC)o2)CC1` [Example 40, ethyl N-[4-(4-chlorophenyl)-5-[3-(2-methoxyphenoxy)propyl]-2-oxazolyl]isonipecotate] was 80 to 81 °C.

`CCc1nccn1-c1nc(-c2ccc(Cl)cc2)c(CCCOc2ccccc2OC)o1` [Example 57, 4-(4-chlorophenyl)-2-(2-ethyl-1-imidazolyl)-5-[3-(2-methoxyphenoxy)propyl]oxazole]: the melting point is 78 to 79 °C. Regarding `CCOC(=O)c1nccn1-c1nc(-c2ccc(Cl)cc2)c(CCCOc2ccccc2OC)o1` [Example 69, ethyl 1-[4-(4-chlorophenyl)-5-[3-(2-methoxyphenoxy)propyl]-2-oxazolyl]imidazole-2-carboxylate], the melting point fell in the range of 90 to 91 °C. Turning to `Cc1nccn1-c1nc(-c2ccc(Cl)cc2)c(CCCCO)s1` [Example 24, 4-(4-chlorophenyl)-2-(2-methyl-1-imidazolyl)-5-thiazolebutanol], the melting point is 98 to 99 °C. Consider `Cc1nccn1-c1nc(-c2ccc(F)cc2)c(CCCCO)o1` [Example 102, 4-(4-fluorophenyl)-2-(2-methyl-1-imidazolyl)-5-oxazolebutanol], for which the melting point was in the range of 97 to 98 °C.

As for `Cc1ccccc1OCCCc1sc(-n2ccnc2C)nc1-c1ccc(Cl)cc1` [Example 96, 4-(4-chlorophenyl)-2-(2-methyl-1-imidazolyl)-5-[3-(2-methylphenoxy)propyl]thiazole], the melting point lay in the range of 112 to 113 °C. As for `COc1ccccc1OCCCc1oc(N2CCOCC2)nc1-c1ccc(Cl)cc1` [Example 39, 4-(4-chlorophenyl)-2-(4-morpholinyl)-5-[3-(2-methoxyphenoxy)propyl]oxazole], the melting point was 81 to 82 °C. Take `Cc1cc(C)n(-c2nc(-c3ccc(Cl)cc3)c(CCCOc3ccccc3C)o2)n1` [Example 72, 4-(4-chlorophenyl)-2-(3,5-dimethyl-1-pyrazolyl)-5-[3-(2-methylphenoxy)propyl]oxazole]: the melting point fell in the range of 103 to 104 °C.

Molecule `CCc1nccn1-c1nc(-c2ccc(Cl)cc2)c(CCCOc2ccccc2C)o1` [Example 56, 4-(4-chlorophenyl)-2-(2-ethyl-1-imidazolyl)-5-[3-(2-methylphenoxy)propyl]oxazole] yielded a melting point of 91 to 92 °C.

Consider `Cc1nccn1-c1nc(-c2ccc(Cl)s2)c(CCCCO)o1` [Example 99, 4-(5-chloro-2-thienyl)-2-(2-methyl-1-imidazolyl)-5-oxazolebutanol], for which the melting point is 77 to 79 °C. Still for that read-out and setting: the value for `Cc1cccc(Cl)c1CCCOc1oc(-n2ccnc2C)nc1-c1ccc(Cl)cc1` [Example 109, 5-[3-(2-chloro-6-methylphenyl)propyloxy]-4-(4-chlorophenyl)-2-(2-methyl-1-imidazolyl)oxazole] was 115 to 116 °C; that for `Cc1nccn1-c1nc(-c2ccc(Cl)cc2)c(CCCOc2ccccc2O)o1` [Example 61, 4-(4-chlorophenyl)-5-[3-(2-hydroxyphenoxy)propyl]-2-(2-methyl-1-imidazolyl)oxazole] was 110 to 111 °C. For the molecule `COC(=O)CCc1oc(-n2ccnc2C)nc1-c1ccc(Cl)c(Cl)c1` [Example 117, methyl 4-(3,4-dichlorophenyl)-2-(2-methyl-1-imidazolyl)-5-oxazolepropionate], the melting point was 116 to 117 °C.
